{"source": "patent US9429582B2", "about": "“Tyrosine-phosphorylated WBP2, a novel cancer target and biomarker” (National University of Singapore, priority 2010, dated 2016)", "format_in_all_cases": "cell-based, human", "key": {"WBP2 [1]": {"system": "WBP2", "test": "Estrogen/progesterone-induced WBP2 tyrosine phosphorylation in MCF7 (IP/IB)", "details": "10 nM E2 or 100 nM P4 for 24 hr, 10 μM Iressa pre-treatment for 1 hr", "description": "A: Serum-starved cells were stimulated with 50 ng/ml EGF (E) for 5 min or hormone-stripped cells were stimulated with 10 nM Estrogen (E2) or 100 nM Progesterone (P4) for 24 hr with/without 10 μM Iressa (Ir) pre-treatment for 1 hr. Whole cell lysates were used for IP/IB analysis with antibodies indicated. […] D: Serum-starved MCF7 were stimulated with 50 ng/ml EGF (E) for 5 min or hormone-stripped cells were stimulated with 10 nM estrogen (E2) or 100 nM progesterone (P4) for 24 hr with/without 10 μM Iressa (Ir) pre-treatment for 1 hr. Whole cell lysates were used for IP/IB analysis with antibodies indicated. […] 24 hr post-transfection, serum-starved MCF7 were stimulated with 50 ng/ml EGF (E) for 5 min or hormone-stripped cells were stimulated with 10 nM Estrogen (E2) or 100 nM Progesterone (P4) for 24 hr. Whole cell lysates were used for IP/IB analysis with antibodies indicated. “O” denotes “untreated/vehicle-treated”\nFor all experiments involving estrogen/progesterone (Sigma), MCF7 and T47D were cultured in Phenol-Red Free RPMI1640 (Sigma) containing 5% Charcoal-dextran Stripped FBS (Hyclone) for at least 2 days before stimulation. […] Fresh hormone/drug was replenished every day for treatment that last for more than 1 day.\nMCF7, MDA-MB231, T47D, HeLa and MCF10A were from American Type Culture Collection. […]"}, "ERα": {"system": "ERα", "test": "ERE-Luciferase reporter assay in MCF7", "details": "MCF7; 10 nM E2 24 hr; 1 hr pretreatment with Iressa", "method": "(§1) A: Hormone-stripped MCF7 or T47D were co-transfected with vector, WBP2-WT or WBP2-Y192-231F mutant and ERE/PRE-Luciferase reporter constructs. Cells were either left alone or stimulated with (a) 50 ng/ml EGF for 5 min, (b) 10 nM E2/100 nM P4 for 24 hr, (c) E2/P4 and EGF in the absence or presence of 1 hr pretreatment with 100 μM Iressa(Ir). ERα/PR-transactivated luciferase activities in various conditions were then assayed. **P<0.01, ***P<0.001, Student's t-test (2-tailed). B: T47D were hormone-stripped and stimulated with 10 nM E2 for the indicated time (0-24 hr) in the absence and presence of 1 hr pretreatment with 10 μM Iressa(k). C: WT-WBP2 or Y192-231F mutant-transfected T47D were hormone stripped followed by 24 hr stimulation with 10 nM E2. For both experiments B and C, cells were then harvested for subcellular fractionation into nuclear and cytoplasmic fractions, which were used for IB/IP analysis with antibodies indicated. Histone 2A and GADPH were used as nuclear and cytoplasmic marker respectively. […] ERE (Top panel)/PR (Bottom panel)-transactivated luciferase activities in various conditions were then assayed analyzed in relative to vehicle-treated vector control. **P<0.01, ***P<0.001, Student's t-test (2-tailed). […] ERα-transactivated luciferase activities in various conditions were then assayed analyzed in relative to vehicle-treated vector control. […]"}, "PR": {"system": "PR", "test": "PRE-Luciferase reporter assay in T47D", "details": "100 nM P4 24 hr, 1 hr pretreatment with Iressa", "method": "as §1"}, "WBP2 [2]": {"system": "WBP2", "test": "Subcellular fractionation of T47D, nuclear WBP2 upon estrogen stimulation", "details": "10 nM E2 0-24 hr, 1 hr pretreatment with 10 μM Iressa", "method": "as §1"}}, "data": [{"smiles": "COc1cc2ncnc(Nc3ccc(F)c(Cl)c3)c2cc1OCCCN1CCOCC1", "note": "[Iressa]", "values": [{"measurement": "estrogen/progesterone-induced WBP2 phosphorylation", "setting": "WBP2 [1]", "value": "Significant abolishment"}, {"measurement": "estrogen-induced coactivator activity of WBP2 (ERα reporter)", "setting": "ERα", "value": "abolished"}, {"measurement": "progesterone-induced coactivator activity of WBP2 (PR reporter)", "setting": "PR", "value": "abolished"}, {"measurement": "nuclear WBP2 upon estrogen stimulation", "setting": "WBP2 [2]", "value": "reduced"}]}]}
